The values that follow are results of earlier work, collected in PMC12736226, “Acid Versus Amide—Facts and Fallacies: A Case Study in Glycomimetic Ligand Design” (Molecules, 2025).

The target of this data set is T1, E-selectin (Homo sapiens, UniProt P16581).
T1 construct: gene SELE; soluble extracellular lectin-domain fragment with Ca2+
T1 sequence (P16581 22-301): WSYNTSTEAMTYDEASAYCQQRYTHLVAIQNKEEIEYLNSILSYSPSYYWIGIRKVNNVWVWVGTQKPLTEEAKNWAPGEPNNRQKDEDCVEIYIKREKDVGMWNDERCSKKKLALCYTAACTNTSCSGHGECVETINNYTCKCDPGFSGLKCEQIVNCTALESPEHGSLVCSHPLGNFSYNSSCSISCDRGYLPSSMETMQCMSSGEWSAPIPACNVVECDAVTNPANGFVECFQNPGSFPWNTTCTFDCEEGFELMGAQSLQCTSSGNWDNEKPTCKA
In words: microscale thermophoresis (MST). Type of data set: binding. Conditions: affinity data also reported in Ref. 25; read-out: Affinity KD MST [μM] (95% CI). An excerpt:
microscale thermophoresis (MST) on E-selectin

Structures are written as SMILES.

The term Kd denotes the constant that tells how readily two partners part at equilibrium. In the case of `C[C@@H]1O[C@@H](O[C@@H]2CCCC[C@H]2O[C@@H]2O[C@H](CO)[C@H](O)[C@H](O[C@@H](CC3CCCCC3)C(=O)N3CC(C)(C)C3)[C@H]2O)[C@@H](O)[C@H](O)[C@@H]1O` [3i], the Kd was 38.2 µM.

In the case of `C[C@@H]1O[C@@H](O[C@@H]2CCCC[C@H]2O[C@@H]2O[C@H](CO)[C@H](O)[C@H](O[C@@H](CC3CCCCC3)C(=O)N3CC(c4ccccc4)C3)[C@H]2O)[C@@H](O)[C@H](O)[C@@H]1O` [3h], the dissociation constant Kd is 16.2 µM.

`C[C@@H]1O[C@@H](O[C@@H]2CCCC[C@H]2O[C@@H]2O[C@H](CO)[C@H](O)[C@H](O[C@@H](CC3CCCCC3)C(N)=O)[C@H]2O)[C@@H](O)[C@H](O)[C@@H]1O` [3a]: the Kd is 166 µM.

With `C[C@@H]1O[C@@H](O[C@@H]2CCCC[C@H]2O[C@@H]2O[C@H](CO)[C@H](O)[C@H](O[C@@H](CC3CCCCC3)C(=O)N(C)C)[C@H]2O)[C@@H](O)[C@H](O)[C@@H]1O` [3d], the dissociation constant (Kd) was 34.6 µM.

As for `CNC(=O)[C@H](CC1CCCCC1)O[C@H]1[C@@H](O)[C@@H](CO)O[C@@H](O[C@@H]2CCCC[C@H]2O[C@@H]2O[C@@H](C)[C@@H](O)[C@@H](O)[C@@H]2O)[C@@H]1O` [3b], the dissociation constant (Kd) was 112 µM.

`C[C@@H]1O[C@@H](O[C@@H]2CCCC[C@H]2O[C@@H]2O[C@H](CO)[C@H](O)[C@H](O[C@@H](CC3CCCCC3)C(=O)N3CCCC3)[C@H]2O)[C@@H](O)[C@H](O)[C@@H]1O` [3e]: the Kd was 21.4 µM.

Consider `C[C@@H]1O[C@@H](O[C@@H]2CCCC[C@H]2O[C@@H]2O[C@H](CO)[C@H](O)[C@H](O[C@@H](CC3CCCCC3)C(=O)N3CCC3)[C@H]2O)[C@@H](O)[C@H](O)[C@@H]1O` [3f], for which the Kd is 17 µM.

For the molecule `CCNC(=O)[C@H](CC1CCCCC1)O[C@H]1[C@@H](O)[C@@H](CO)O[C@@H](O[C@@H]2CCCC[C@H]2O[C@@H]2O[C@@H](C)[C@@H](O)[C@@H](O)[C@@H]2O)[C@@H]1O` [3c], the equilibrium dissociation constant (Kd) was 109 µM.

Regarding `CC(=O)N[C@H]1[C@H]([C@H](O)[C@H](O)CO)O[C@@](O[C@H]2[C@@H](O)[C@@H](CO)O[C@@H](O[C@H]3[C@H](O[C@@H]4O[C@@H](C)[C@@H](O)[C@@H](O)[C@@H]4O)[C@@H](NC(C)=O)C(O)O[C@@H]3CO)[C@@H]2O)(C(=O)O)C[C@@H]1O` (stereo partly drawn) [compound 1, Sialyl Lewis^x], the Kd was 873 µM.
